The subject of one test is A-375 cells. As to the kind of experiment: Inhibition of cell proliferation (MTS), A-375 cells. It counts as cell-based. Particulars: Homo sapiens, A-375, 72 h. As to the method:
(§1) MTS testing kit was purchased from Promega. The DMEM, RPMI-1640 and Fetal bovine serum were purchased from Gibco. Dimethyl sulfoxide (DMSO) was purchased from Sigma.
(§2) To investigate whether a compound is able to inhibit the activity of MEK in cells, a mechanism-based assay using A-375 and HT-29 cell was developed. In this assay, inhibition of MEK was detected by the inhibition of A-375 and HT-29 cells proliferation. A-375 and HT-29 cells were cultured in culture flasks to 40-80% confluence respectively in DMEM and RPMI-1640 plus 10% fetal bovine serum. Cells were collected and plated onto 96-well plates at desired cell density (A-375: 3000 cells/well; HT-29: 5000 cells/well). Plates were incubated overnight at 37° C., with 5% CO2 to adhere. Compounds were added to the plates. The final compound concentrations were […], 12.35, 4.12, 1.37, 0.46 and 0.15 nM, respectively. Place plates at 37° C., with 5% CO2 for 72 h. 10 μl MTS were added to each well and incubate the plates for exactly 2 hours. Absorbance was measured at 490 nm. […] was calculated using GraphPad Prism 5.0.

In a further test the test system is HT-29 cells. As to the kind of experiment: Inhibition of cell proliferation (MTS), HT-29 cells. It counts as cell-based. Particulars: Homo sapiens, HT-29, 72 h. How it is done:
as §1, §2

[1] abbreviates: A-375 cells, 3000 cells/well, 72 h, MTS, absorbance 490 nm, read-out: A375 IC50.
[2] abbreviates: HT-29 cells, 5000 cells/well, 72 h, MTS, absorbance 490 nm, read-out: HT29 IC50.

Like-named read-outs stand apart in the source and are kept apart here.

Broadly, the IC50 is the concentration needed to halve the response being measured.

Regarding `CC(=O)Nc1cccc(-c2nn(C3CC3)c(=O)c3c(Nc4ccc(I)cc4F)c(F)c(=O)n(C)c23)c1` [Example 1, N-(3-(6-cyclopropyl-3-fluoro-4-(2-fluoro-4-iodophenylamino)-1-methyl-2,5-dioxo-1,2,5,6-tetrahydropyrido[2,3-d]pyridazin-8-yl)phenyl)acetamide], the IC50 was 1.2 nM with A-375 cells (read-out: A375 IC50 (nM)) and 2.4 nM with HT-29 cells (read-out: HT29 IC50 (nM)).

`CCC(=O)Nc1cccc(-c2nn(C3CC3)c(=O)c3c(Nc4ccc(I)cc4F)c(F)c(=O)n(C)c23)c1` [Example 2, N-(3-(6-cyclopropyl-3-fluoro-4-(2-fluoro-4-iodophenylamino)-1-methyl-2,5-dioxo-1,2,5,6-tetrahydropyrido[2,3-d]pyridazin-8-yl)phenyl)propionamide]: the half-inhibitory concentration (IC50) in the test on A-375 cells (setting [1]) is 10.6 nM; in the test with HT-29 cells (setting [2]), 13.7 nM.

`CC(C)C(=O)Nc1cccc(-c2nn(C3CC3)c(=O)c3c(Nc4ccc(I)cc4F)c(F)c(=O)n(C)c23)c1` [Example 3, N-(3-(6-cyclopropyl-3-fluoro-4-(2-fluoro-4-iodophenylamino)-1-methyl-2,5-dioxo-1,2,5,6-tetrahydropyrido[2,3-d]pyridazin-8-yl)phenyl)isobutyramide]: the figures for the half-inhibitory concentration (IC50) with A-375 cells (setting [1]) and in the test on HT-29 cells (setting [2]) were 15.3 nM and 41.4 nM, respectively.

Take `Cn1c(=O)c(F)c(Nc2ccc(I)cc2F)c2c(=O)n(C3CC3)nc(-c3cccc(NC(=O)C4CC4)c3)c21` [Example 4, N-(3-(6-cyclopropyl-3-fluoro-4-(2-fluoro-4-iodophenylamino)-1-methyl-2,5-dioxo-1,2,5,6-tetrahydropyrido[2,3-d]pyridazin-8-yl)phenyl)cyclopropanecarboxamide]: the IC50 in the test with A-375 cells (setting [1]) worked out at 26.6 nM; in the test on HT-29 cells (setting [2]), 41.9 nM.

Consider `Cn1c(=O)c(F)c(Nc2ccc(I)cc2F)c2c(=O)n(C3CC3)nc(-c3cccc(NS(C)(=O)=O)c3)c21` [Example 5, N-(3-(6-cyclopropyl-3-fluoro-4-(2-fluoro-4-iodophenylamino)-1-methyl-2,5-dioxo-1,2,5,6-tetrahydropyrido[2,3-d]pyridazin-8-yl)phenyl)methanesulfonamide], for which the IC50 in the test on A-375 cells (setting [1]) is 4 nM; in the test on HT-29 cells (setting [2]), 5.1 nM.

Regarding `CCS(=O)(=O)Nc1cccc(-c2nn(C3CC3)c(=O)c3c(Nc4ccc(I)cc4F)c(F)c(=O)n(C)c23)c1` [Example 6, N-(3-(6-cyclopropyl-3-fluoro-4-(2-fluoro-4-iodophenylamino)-1-methyl-2,5-dioxo-1,2,5,6-tetrahydropyrido[2,3-d]pyridazin-8-yl)phenyl)ethanesulfonamide], the figures for the IC50 with A-375 cells (setting [1]) and in the test on HT-29 cells (setting [2]) were 4.8 nM and 6.4 nM, respectively.

As for `CC(C)S(=O)(=O)Nc1cccc(-c2nn(C3CC3)c(=O)c3c(Nc4ccc(I)cc4F)c(F)c(=O)n(C)c23)c1` [Example 7, N-(3-(6-cyclopropyl-3-fluoro-4-(2-fluoro-4-iodophenylamino)-1-methyl-2,5-dioxo-1,2,5,6-tetrahydropyrido[2,3-d]pyridazin-8-yl)phenyl)propane-2-sulfonamide], the IC50 with A-375 cells (setting [1]) came to 3.5 nM; in the test on HT-29 cells (setting [2]), 4.1 nM.

For the compound `C=CCn1nc(-c2cccc(NS(=O)(=O)C3CC3)c2)c2c(c(Nc3ccc(I)cc3F)c(F)c(=O)n2C)c1=O` [Example 8, N-(3-(6-allyl-3-fluoro-4-(2-fluoro-4-iodophenylamino)-1-methyl-2,5-dioxo-1,2,5,6-tetrahydropyrido[2,3-d]pyridazin-8-yl)phenyl)cyclopropanesulfonamide], the IC50 in the test on A-375 cells (setting [1]) and in the test on HT-29 cells (setting [2]) was 5.4 nM each time.

For the compound `CC(=O)Nc1cccc(-c2nn(C(C)C)c(=O)c3c(Nc4ccc(I)cc4F)c(F)c(=O)n(C)c23)c1` [Example 9, N-(3-(3-fluoro-4-(2-fluoro-4-iodophenylamino)-6-isopropyl-1-methyl-2,5-dioxo-1,2,5,6-tetrahydropyrido[2,3-d]pyridazin-8-yl)phenyl)acetamide], the IC50 in the test on A-375 cells (setting [1]) was found to be 44 nM; with HT-29 cells (setting [2]), 47.3 nM.

Regarding `CCC(=O)Nc1cccc(-c2nn(C(C)C)c(=O)c3c(Nc4ccc(I)cc4F)c(F)c(=O)n(C)c23)c1` [Example 10, N-(3-(3-fluoro-4-(2-fluoro-4-iodophenylamino)-6-isopropyl-1-methyl-2,5-dioxo-1,2,5,6-tetrahydropyrido[2,3-d]pyridazin-8-yl)phenyl)propionamide], the IC50 in the test on A-375 cells (setting [1]) was 61.2 nM; in the test with HT-29 cells (setting [2]) it was 59.6 nM.

Regarding `CC(C)C(=O)Nc1cccc(-c2nn(C(C)C)c(=O)c3c(Nc4ccc(I)cc4F)c(F)c(=O)n(C)c23)c1` [Example 11, N-(3-(3-fluoro-4-(2-fluoro-4-iodophenylamino)-6-isopropyl-1-methyl-2,5-dioxo-1,2,5,6-tetrahydropyrido[2,3-d]pyridazin-8-yl)phenyl)isobutyramide], the IC50 with A-375 cells (setting [1]) worked out at 198 nM; with HT-29 cells (setting [2]) it was 180 nM.

Turning to `CC(C)n1nc(-c2cccc(NC(=O)C3CC3)c2)c2c(c(Nc3ccc(I)cc3F)c(F)c(=O)n2C)c1=O` [Example 12, N-(3-(3-fluoro-4-(2-fluoro-4-iodophenylamino)-6-isopropyl-1-methyl-2,5-dioxo-1,2,5,6-tetrahydropyrido[2,3-d]pyridazin-8-yl)phenyl)cyclopropanecarboxamide], the IC50 with A-375 cells (setting [1]) worked out at 199 nM; in the test on HT-29 cells (setting [2]), 192 nM.

In the case of `CC(C)n1nc(-c2cccc(NS(C)(=O)=O)c2)c2c(c(Nc3ccc(I)cc3F)c(F)c(=O)n2C)c1=O` [Example 13, N-(3-(3-fluoro-4-(2-fluoro-4-iodophenylamino)-6-isopropyl-1-methyl-2,5-dioxo-1,2,5,6-tetrahydropyrido[2,3-d]pyridazin-8-yl)phenyl)methanesulfonamide], the IC50 in the test with A-375 cells (setting [1]) stood at 26.2 nM; with HT-29 cells (setting [2]), 87.4 nM.

As for `CCS(=O)(=O)Nc1cccc(-c2nn(C(C)C)c(=O)c3c(Nc4ccc(I)cc4F)c(F)c(=O)n(C)c23)c1` [Example 14, N-(3-(3-fluoro-4-(2-fluoro-4-iodophenylamino)-6-isopropyl-1-methyl-2,5-dioxo-1,2,5,6-tetrahydropyrido[2,3-d]pyridazin-8-yl)phenyl)ethanesulfonamide], the IC50 in the test with A-375 cells (setting [1]) amounted to 19.6 nM; with HT-29 cells (setting [2]), 6.4 nM.

With `CC(C)n1nc(-c2cccc(NS(=O)(=O)C(C)C)c2)c2c(c(Nc3ccc(I)cc3F)c(F)c(=O)n2C)c1=O` [Example 15, N-(3-(3-fluoro-4-(2-fluoro-4-iodophenylamino)-6-isopropyl-1-methyl-2,5-dioxo-1,2,5,6-tetrahydropyrido[2,3-d]pyridazin-8-yl)phenyl)propane-2-sulfonamide], the IC50 in the test on A-375 cells (setting [1]) is 34.9 nM; in the test with HT-29 cells (setting [2]) it was 152 nM.

For `CC(C)n1nc(-c2cccc(NS(=O)(=O)C3CC3)c2)c2c(c(Nc3ccc(I)cc3F)c(F)c(=O)n2C)c1=O` [Example 16, N-(3-(3-fluoro-4-(2-fluoro-4-iodophenylamino)-6-isopropyl-1-methyl-2,5-dioxo-1,2,5,6-tetrahydropyrido[2,3-d]pyridazin-8-yl)phenyl)cyclopropanesulfonamide], the IC50 is 19.4 nM in the test on A-375 cells (setting [1]) and 31.5 nM in the test with HT-29 cells (setting [2]).

Take `CCCn1nc(-c2cccc(NS(=O)(=O)C3CC3)c2)c2c(c(Nc3ccc(I)cc3F)c(F)c(=O)n2C)c1=O` [Example 17, N-(3-(3-fluoro-4-(2-fluoro-4-iodophenylamino)-1-methyl-2,5-dioxo-6-propyl-1,2,5,6-tetrahydropyrido[2,3-d]pyridazin-8-yl)phenyl)cyclopropanesulfonamide]: the values for the IC50 in the test on A-375 cells (setting [1]) and in the test with HT-29 cells (setting [2]) were 12.8 nM and 21.6 nM, respectively.

Regarding `COCCn1nc(-c2cccc(NS(=O)(=O)C3CC3)c2)c2c(c(Nc3ccc(I)cc3F)c(F)c(=O)n2C)c1=O` [Example 18, N-(3-(3-fluoro-4-(2-fluoro-4-iodophenylamino)-6-(2-methoxyethyl)-1-methyl-2,5-dioxo-1,2,5,6-tetrahydropyrido[2,3-d]pyridazin-8-yl)phenyl)cyclopropanesulfonamide], the values for the IC50 with A-375 cells (setting [1]) and in the test with HT-29 cells (setting [2]) were 30.2 nM and 23.6 nM, respectively.

Regarding `Cn1c(=O)c(F)c(Nc2ccc(I)cc2F)c2c(=O)n(CCF)nc(-c3cccc(NS(=O)(=O)C4CC4)c3)c21` [Example 19, N-(3-(3-fluoro-4-(2-fluoro-4-iodophenylamino)-6-(2-fluoroethyl)-1-methyl-2,5-dioxo-1,2,5,6-tetrahydropyrido[2,3-d]pyridazin-8-yl)phenyl)cyclopropanesulfonamide], the IC50 with A-375 cells (setting [1]) worked out at 2.4 nM; in the test on HT-29 cells (setting [2]), 4.2 nM.

Turning to `C=CCn1nc(-c2cccc(NC(C)=O)c2)c2c(c(Nc3ccc(I)cc3F)c(Cl)c(=O)n2C)c1=O` [Example 38, N-(3-(6-allyl-3-chloro-4-(2-fluoro-4-iodophenylamino)-1-methyl-2,5-dioxo-1,2,5,6-tetrahydropyrido[2,3-d]pyridazin-8-yl)phenyl)acetamide], the IC50 in the test with A-375 cells (setting [1]) was found to be 20.8 nM.

For `CC(=O)Nc1cccc(-c2nn(CC(O)CO)c(=O)c3c(Nc4ccc(I)cc4F)c(Cl)c(=O)n(C)c23)c1` (stereo not shown) [Example 39, N-(3-(3-chloro-6-(2,3-dihydroxypropyl)-4-((2-fluoro-4-iodophenyl)amino)-1-methyl-2,5-dioxo-1,2,5,6-tetrahydropyrido[2,3-d]pyridazin-8-yl)phenyl)acetamide], the IC50 in the test with A-375 cells (setting [1]) was found to be 22.8 nM.

Source of the values: patent US10022374B2, “Certain protein kinase inhibitors” (Shanghai Fochon Pharmaceutical Co., Ltd., priority 2013, dated 2018).
